From US10179160B2, “Therapeutic compositions for the treatment of dry eye disease” (SCHEPENS EYE RESEARCH INSTITUTE, priority 2010, dated 2019)

Experiments:
DED mice [1] = test: Real-time PCR of IL-17 and IFN-γ in draining lymph nodes of DED mice; format: in vivo; details: anti-VEGF-C treated vs untreated DED mice
Excerpt: (§1) Eight to ten week-old female C57BLI6 mice (Charles River Laboratory, Wilmington, Mass.) were used in accordance with the standards in the ARVO Statement for the Use of Animals in Ophthalmic and Vision Research. The research protocol was approved by the Schepens Eye Research Institute Animal Care and Use Committee. Dry eye was induced in murine eyes using a Controlled Environment Chamber (CEC) which exposes the mice to high-flow desiccated air. To achieve maximum ocular surface dryness, the conditions in CEC were supplemented with topical application of 1% atropine sulfate (Falcon Pharma, Fort Worth, Tex.) twice for the first 48 hours and subcutaneous injections of 0.1 ml of 5 mg/ml of scopolamine hydrobromide (Sigma-Aldrich, St. Louis, Mo.) three times a day, for the entire duration of the experiment.
Five mice (10 eyes) were included in each group. […]
(§2) Anti-VEGF-C antibodies (VGX-100; Vegenics Limited, Australia) were administered intraperitonealy daily from day 1 to day 10 to DED mice. Mice were assessed clinically using corneal fluorescent staining. […]
(§3) Real time PCR was performed to quantify expression of different VEGF growth factors (VEGF-A, VEGF-C, VEGF-D) and their receptors (VEGFR-2, VEGFR-3) in the cornea at days 6, 10 and 14 (FIG. 8) and to determine the levels of proinflammatory cytokines.

DED mice [2] = test: Enumeration of CD11b+ cells in DED corneas (immunohistochemistry); format: in vivo
Excerpt: (§4) Eight to ten week-old female C57BLI6 mice (Charles River Laboratory, Wilmington, Mass.) were used in accordance with the standards in the ARVO Statement for the Use of Animals in Ophthalmic and Vision Research. The research protocol was approved by the Schepens Eye Research Institute Animal Care and Use Committee. Dry eye was induced in murine eyes using a Controlled Environment Chamber (CEC) which exposes the mice to high-flow desiccated air. […]
(§5) Freshly excised corneas were washed in PBS, fixed in acetone for 15 minutes and then double stained with CD31 and LYVE-1 as described previously. To analyze infiltration of CD11b^+/LYVE-1 cells, corneas from three mice from each group were taken and cells were counted in 5-6 areas in the periphery ([…] area from the limbus) of each cornea in a masked fashion, using epifluorescence microscope (model E800; Nikon, Melville, N.Y.) at 40× magnification. The mean number of cells was obtained by averaging the total number of cells in all the areas studied and the result was expressed as the number of positive cells per mm^2.
as §2

DED mice [3] = test: Real-time PCR of pro-lymphangiogenic growth factors and receptors in DE corneas; format: in vivo; details: VEGF-C blockade in DED mice
Excerpt: as §1
Five mice (10 eyes) were included in each group. Two corneas were pooled together to equal as one sample and stored at −80′C in Trizol (Invitrogen, Carlsbad, Calif.; catalog No. 15596026) until future use. Total RNA was isolated from these corneas using the RNeasy microkit (Qiagen, Valencia, Calif.; catalog No. 74004). Equal amounts of RNA were used to synthesize cDNA using SuperScript™ III Reverse Trancriptase (Invitrogen, Carlsbad, Calif.; catalog No. 18080) according to the manufacturer's recommendations. Real-Time PCR was performed using FAM-MGB dye labeled predesigned primers (Applied Biosystem, Foster City, Calif.) for GAPDH (assay ID.Mm999999 15_g1), VEGF-A (Mm00437304_m1), VEGF-C (Mrn00437313_m1), VEGF-D (Mm00438965_m1), VEGFR-2 (Mm00440099_m1), VEGFR-3 (Mm00433337_m1). 2.5 μl of cDNA was loaded in each well and assays were performed in duplicate. The GAPDH gene was used as the endogenous reference for each reaction. […]
as §3

DED mice [4] = test: Corneal fluorescein staining / clinical signs in experimental dry eye murine model; format: in vivo; details: for clinical signs of DED / disease severity: anti-VEGF-C-treated vs untreated DED mice
Excerpt: as §1
(§6) Anti-VEGF-C antibodies (VGX-100; Vegenics Limited, Australia) were administered intraperitonealy daily from day 1 to day 10 to DED mice. Mice were assessed clinically using corneal fluorescent staining. Tissues from cornea, conjunctiva and draining lymph nodes were examined for cellular and molecular pathological changes.
Corneal lymphatics play an important role in mediating the corneal inflammation in dry eyes. Experiments: To validate this, inhibition of corneal neolymphangiogenesis was performed in a well characterized mouse model of DED described above. To see if inhibition of corneal neolymphangiogenesis could decrease ocular surface inflammation, anti-VEGF-C antibodies were administered i.p. daily from day −1 to day 10 to DED mice and assessed clinically using corneal fluorescein staining.
Methods (as described previously): Induction of Dry Eye Disease. Experimental Dry Eye Murine Model. Assessment of Corneal Surface: Corneal Fluorescein Staining. Immunohistochemistry: Monocyte/macrophage marker—CD11b; Pan-endothelial marker—CD31; Lymphatic endothelial marker—LYVE-1; Blood vessels: CD31^hi/LYVE-1; Lymph vessels: CD31^lo/LYVE-1^hi. Morphometry of Lymphangiogenesis: Automated image analysis program written using Mat lab. Lymphatic Area (LA)—total surface area of the lymphatic vessels when projected into the plane of the image. Lymphatic Caliber (LC)—measure of the diameters of the lymphatic vessels.
Anti-VEGF-C antibody and treatment regimen. Experimental design: Three groups: Normal, DE group treated with IP normal Saline (Untreated) and DE group treated with anti-VEGF-C antibody (VGX-100; a gift from Vegenics, Australia). Daily IP application of anti-VEGF-C antibody/Normal saline from day −1 to day 13. Dose: […] (20 mg/kg) in […] of Normal Saline.

DED mice [5] = test: Corneal lymphangiogenesis (lymphatic growth) in DED mice; details: in vivo blockade of VEGF-C in DED mice
Excerpt: as §4, §5
Morphology of lymphatics was analyzed using an automated image analysis program written with Matlab (The Mathworks, Inc., Natick, Mass.). […] The resultant isolated lymphatic vessels were analyzed morphologically using two metrices, Lymphatic Area (LA) and Lymphatic Caliber (LC). […]

DED mice [6] = test: Real-time PCR of proinflammatory cytokines in conjunctiva of DED mice; format: in vivo
Excerpt: as §1
Five mice (10 eyes) were included in each group. Two corneas were pooled together to equal as one sample and stored at −80′C in Trizol (Invitrogen, Carlsbad, Calif.; catalog No. 15596026) until future use. Total RNA was isolated from these corneas using the RNeasy microkit (Qiagen, Valencia, Calif.; catalog No. 74004). Equal amounts of RNA were used to synthesize cDNA using SuperScript™ III Reverse Trancriptase (Invitrogen, Carlsbad, Calif.; catalog No. 18080) according to the manufacturer's recommendations. Real-Time PCR was performed using FAM-MGB dye labeled predesigned primers (Applied Biosystem, Foster City, Calif.) for GAPDH (assay ID.Mm999999 15_g1), VEGF-A (Mm00437304_m1), VEGF-C (Mrn00437313_m1), VEGF-D (Mm00438965_m1), VEGFR-2 (Mm00440099_m1), VEGFR-3 (Mm00433337_m1). 2.5 μl of cDNA was loaded in each well and assays were performed in duplicate. The GAPDH gene was used as the endogenous reference for each reaction. The results were normalized by the cycle threshold (CT) of GAPDH and the relative mRNA level in the normal mice was used as the normalized control.
as §6, §3

[7] = real-time PCR, anti-VEGF-C treated vs untreated DED mice

## VGX-100: human anti-VEGF-C monoclonal antibody produced by hybridoma ATCC PTA-4095, heavy/light chains SEQ ID NO: 48/49; from Vegenics
DED mice [1]
  IFN-γ (Th1 cells) in draining lymph nodes, induction of T-cell mediated autoimmune response: significantly decreased induction
  IL-17 (Th17 cells) in draining lymph nodes, induction of T-cell mediated autoimmune response: significantly decreased induction
DED mice [2]; VEGF-C blockade in DED mice
  corneal infiltration of CD11b+ cells: decrease
DED mice [2]; day 14
  decrease of infiltration of CD11b+ cells in the DED corneas: 30%
DED mice [3]
  expression of VEGF-C in DE corneas: decrease
  expression of VEGF-D in DE corneas: decrease
  expression of VEGFR-3 (R3) in DE corneas: decrease
DED mice [4]; VEGF-C blockade in DED mice
  corneal epitheliopathy: decrease
DED mice [4]; anti-VEGF-C Ab-treated vs untreated DED mice, days 5, 9 and 13, daily IP, 20 mg/kg
  Corneal fluorescein staining (CFS) score: significantly decreased
DED mice [4]; daily IP
  clinical signs of DED / disease severity: ameliorates
DED mice [4]; daily IP, listed as anti-VEGF-C
  clinical signs of DED / disease severity: significant decrease
DED mice [5]
  corneal lymphangiogenesis / lymphatic growth: suppresses
DED mice [5]; listed as anti-VEGF-C
  corneal lymphangiogenesis / lymphatic growth: suppression
DED mice [6]; VEGF-C blockade in DED mice
  mRNA expression levels of proinflammatory cytokines in the conjunctiva: decrease
DED mice [6]; [7]
  IL-1α expression in conjunctiva: significantly decreased expression
  IL-1β expression in conjunctiva: significantly decreased expression
  IL-6 expression in conjunctiva: significantly decreased expression
  IL-17 expression in conjunctiva: significantly decreased expression
